# Source: patent publication US20260108588A1, “A COMPLEX COMPRISING A ALPHA-LACTALBUMIN AND A FATTY ACID OR LIPID FOR USE IN THE TREATMENT OR PREVENTION OF CANCER” (LINNANE PHARMA AB, priority 2022, published 2026)
# Key:
# [1] = test system: intestinal gene expression; assay: Transcriptomic analysis of intestinal tissue of Apc^Min/+ mice; format: in vivo
# Procedure: Approximately 5 mg of tissue was homogenized using a Tissuelyser (Qiagen) and total RNA was extracted using the RNeasy kit (Qiagen), amplified using a GeneChip 3'IVT Express Kit, hybridized onto Mouse Genome 430 PM array strips, and scanned using the GeneAtlas system (Affymetrix). Data was normalized using Robust Multi Average implemented in the Transcriptome Analysis Console software (v.4.0.1.36, Applied Biosystems, ThermoFisher Scientific). Relative expression was analyzed by ANOVA using the empirical Bayes method, and genes with an absolute fold change >1.5 or 2.0 were considered differentially expressed. Heat maps were constructed using Graphpad Prism 9 and differentially expressed genes were analyzed using Ingenuity Pathway Analysis software (IPA, Qiagen).
# [2] = test system: DLD1 colorectal adenocarcinoma cells; assay: TUNEL assay; format: cell-based, human; conditions: 7 μM, 21 μM and 35 μM, one hour
# Procedure: DNA fragmentation was detected using the terminal deoxynucleotidyl transferase dUTP nick end-labeling (TUNEL) assay (Click-IT TUNEL Alexa Fluor 488 imaging assay kit, ThermoFisher Scientific, #C10245). DLD1 cells were seeded in 8-well chamber slide (2×10^4 cells/well) cultured overnight (37° C., 5% CO2) and incubated with BAMLET 7 μM, 21 μM and 35 μM for one hour in serum-free RPMI-1640 at 37° C. Cells were fixed (2% PFA, 15 minutes), permeabilized (0.25% Triton X-100 in PBS, 20 minutes) and incubated with TUNEL reaction mixture containing TdT for 60 minutes at 37° C. After the TUNEL reaction, cells were incubated with Click-iT reaction mixture for 30 minutes. Cells were counterstained with Hoechst 33342 (1:1000, 15 minutes, ThermoFisher Scientifi, Cat #62249), mounted in Fluoromount aqueous mounting media (Sigma, Cat #4680), and examined by LSM 900 confocal microscopy (Carl Zeiss). Fluorescence intensities were quantified by ImageJ.
# DLD1 cells = assay: Cell death assays (Prestoblue and ATPlite); format: cell-based, human; conditions: 7, 21 and 35 μM; Prestoblue and ATPlite
# Procedure: Two assays were used as an indirect measure of cell death. Luminescence-based ATPlite™ kit (Perkin Elmer) as well as the Prestoblue assay (ThermoFisher Scientific). Cells (5×10^4 cells/well) were seeded in serum-free RPMI-1640 on 96-well plates and treated with BAMLET and alpha1-oleate at different concentration (7, 21, and 35 μM) and incubated for one hour. Afterward, FCS was added at concentration of 5% and the cells were continuously incubated for two hours at 37° C., at the end of which the two kits were used according to manufactures' instructions. Luminescence and fluorescence were measured using a microplate reader (Infinite F200, Tecan). The experiments were performed in triplicate and repeated twice.
# [3] = test system: DLD1 colorectal carcinoma cells; assay: Live cell imaging assay, cellular uptake of labelled BAMLET; format: cell-based, human; conditions: 21 μM, one hour
# Procedure: To visualize the cellular uptake of BAMLET, cells were seeded on 6-well ibidi chambers (3.5×10^4 cells/well) overnight and then treated with Janelia Fluor-549 labeled (TOCRIS, Cat #6147) BAMLET mixed with unlabelled BAMLET (21 μM) for one hour at 37° C. The nuclei were counterstained for five minutes with DAPI (Abcam Cat #ab228549, 1:1,000) and uptake of labelled BAMLET was captured with the LSM 900 laser scanning confocal microscope with oil immersion ×63 objectives (Carl Zeiss).
# healthy C57BL/6 mice = assay: BAMLET in healthy C57BL/6 mice: macroscopic inspection and intestinal gene expression analysis
# Procedure: Approximately 5 mg of tissue was homogenized using a Tissuelyser (Qiagen) and total RNA was extracted using the RNeasy kit (Qiagen), amplified using a GeneChip 3'IVT Express Kit, hybridized onto Mouse Genome 430 PM array strips, and scanned using the GeneAtlas system (Affymetrix). Data was normalized using Robust Multi Average implemented in the Transcriptome Analysis Console software (v.4.0.1.36, Applied Biosystems, ThermoFisher Scientific). Relative expression was analyzed by ANOVA using the empirical Bayes method, and genes with an absolute fold change >1.5 or 2.0 were considered differentially expressed.
# To identify effects on healthy tissues, healthy C57BL/6 mice received BAMLET by oral gavage or in the drinking water (FIG. 6). The effects were evaluated by macroscopic inspection of intestinal tissues and gene expression analysis.
# [4] = test system: Wnt/β-catenin signaling pathway; assay: Gene expression analysis of lungs, livers and kidneys of Apc^Min/+ mice; format: in vivo; conditions: BAMLET treated compared to sham treated Apc^Min/+ mice
# [5] = test system: intestinal tumors of Apc^Min/+ mice; assay: Intestinal cancer model in Apc^Min/+ mice, BAMLET in the drinking water (eight weeks and long term); format: in vivo; conditions: vs sham
# Procedure: Apc^Min/+ mice were obtained from Jackson Laboratories at about eight weeks of age. Genotyping was performed by PCR analysis of genomic DNA obtained from blood collected from the retro-orbital sinus. Multiple tumors were developed in the small intestine at eight to ten weeks. Mice were acclimated for about two weeks at the local animal facility at BMC, Lund University in order to reduce stress from transportation.
# For BAMLET prophylaxis protocol, ten-week-old female Apc^Min/+ mice (n=10 mice per group) were provided daily with BAMLET (20 mg/day in 5 ml PBS) in the drinking water for eight weeks and sacrificed at 18 weeks of age. A similar treatment was used in the survival study groups where mice were observed until 37 weeks of age.
# Mice were sacrificed by isoflurane inhalation. Tumor enumeration and sample collection was presented as previously described^28. Tumor numbers and size were determined using a dissecting microscope (Olympus) and evaluated by three blinded investigators.
# The opened intestinal segments were spread flat between sheets of filter paper and fixed overnight in 10% neutral buffered formalin. Formalin-fixed sections were transferred to 70% ethanol and stained with 0.2% methylene blue (Sigma, #M9140). Stained sections were rinsed in deionized water and imaged by a dissecting microscope.
# (§1) Swiss rolls of longitudinally opened intestinal segments were fixed overnight in 10% neutral buffered formalin. Samples were embedded in paraffin and 5 μm thick sections were further processed for histology and immunohistochemistry using antibodies for bovine alpha-Lactalbumin (ThermoFisher Scientific, Cat #A10-128A), β-catenin (CellSignaling, Cat #9562), Cyclin D1 (ThermoFisher Scientific, Cat #SC8396), Ki-67 (BD Biosciences, Cat #556003), VEGF (Abcam, Cat #ab46154), PD-1 (Abcam, Cat #ab214421) and TTF-1 (Abcam, Cat #ab227652) as previously described^28 with slight modifications. Citrate buffer (Dako Target Retrieval Solution, Agilent, Cat #S1699) was used for antigen retrieval for Cyclin D1, Ki-67, VEGF, bovine alpha-Lactalbumin and β-catenin staining. EDTA buffer (Abcam, Cat #ab64216) was used for antigen retrieval for TTF-1 staining. Immunohistochemistry was quantified by ImageJ. For Hematoxylin-Eosin (H&E) staining, Hematoxylin (ThermoFisher Scientific, Cat #7211) was used followed by Eosin-Y (ThermoFisher Scientific, Cat #7111) for counterstaining. Images were captured using the AX10 microscope or the Hamamatzu Nanozoomer scanner (Carl Zeiss) and the DAB-positive beta-catenin antibody fields (4-10) for each organ cross-sections were quantified by ImageJ.
# [6] = test system: intestine of tumor bearing APC^Min/+ mice; assay: Real-time in vivo fluorescence imaging and immunohistochemistry of BAMLET in tumor-bearing mice
# Text: as §1
# BAMLET was labeled using VivoTag 680XL Protein Labeling Kit (Perkin Elmer). Apc^Min/+ mice were orally gavaged with 10 mg of VivoTag 680-labelled BAMLET in 200 μl of PBS. The intestinal tissue samples were collected after 24 hours or 48 hours and imaged using an IVIS Spectrum imaging system (Perkin Elmer). BAMLET signal was acquired at fluorescent settings with 680 nm excitation.
# [7] = long-term BAMLET in drinking water
substance,measurement,setting,value
BAMLET,intestinal gene expression compared to healthy C57BL/6 mice,"[1]; BAMLET treated Apc^Min/+ mice in contrast to sham, including cancer related biofunctions",significantly less affected
same,number of genes regulated at all time points (shared genes),"[1]; BAMLET treated vs sham, cut-off fold change ≥2.0",2339
same,cancer-related biofunctions,"[1]; BAMLET treated vs sham, gavage or drinking water, shared genes",inhibited
same,Wnt/β-catenin signaling (network analysis of shared genes),"[1]; genes regulated at all time points (2w pt, 5w pt, 8w dw), vs sham",inhibited
same,"Wnt/β-catenin signaling pathway, intestinal gene expression","[1]; long-term follow up, BAMLET in drinking water",inhibited
same,PD-1 pathway activation (gene expression),"[1]; long-term, BAMLET treated Apc^Min/+ mice compared to healthy C57BL/6 mice",reduced PD-1 pathway activation
same,PD-1 pathway (gene expression),"[1]; long-term, direct comparison BAMLET treated vs sham",most strongly down-regulated
same,CD44 and its ligand SPP1 (osteopontin) expression,"[1]; tumor microenvironment pathway, BAMLET vs sham",most strongly inhibited genes in the tumor microenvironment pathway
same,principal component analysis of mRNA profiles,[1]; whole intestinal tissue,formed a cluster near the healthy mice and distant from the sham group
same,TUNEL staining (DNA strand breaks),[2],Dose-dependent increase
same,cell viability,DLD1 cells,rapid dose-dependent reduction
same,uptake of labelled BAMLET,[3],rapidly internalized into the cytoplasm and nuclei
same,inflammatory or necrotic changes in the intestines or peripheral organs,"healthy C57BL/6 mice; gavage or drinking water, vs untreated controls",no evidence of inflammatory or necrotic changes
same,"genes involved in lipid metabolism, glucose metabolism, insulin tolerance and immune regulation",healthy C57BL/6 mice; intestinal tissue,significantly affected
same,toxic response (gene expression),healthy C57BL/6 mice; intestinal tissue,no evidence of a toxic response
same,number of regulated genes,"healthy C57BL/6 mice; intestinal tissue, cut-off fold change ≥1.5, P<0.05",about 150 genes
same,macroscopic appearance of tissues outside the intestinal tract,"healthy C57BL/6 mice; mouse, in vivo",No changes in macroscopic appearance
same,organ weights,"healthy C57BL/6 mice; mouse, in vivo",no change in organ weights
same,"Wnt/β-catenin signaling pathway in lungs, livers and kidneys (gene expression)",[4],down-regulated
same,polyp number and polyp size,"[5]; 20 mg/day in drinking water, after eight weeks",markedly reduced
same,loss of body weight,[5]; [7],prevented
same,survival (Kaplan-Meier analysis),[5]; [7],increase in survival
same,total polyp number and polyp size,[5]; [7],reduced
same,retention of VivoTag 680-labeled BAMLET in the intestine,"[6]; 18-week-old APC^Min/+ mice, oral gavage, after 24 and 48 hours",Significant retention
same,time retained in tumor tissue,[6]; after the first oral dose,at least 48 hours
same,BAMLET staining in intestinal tissue sections,[6]; immunohistochemistry with BAMLET specific antibodies,detected
